Data reported in US7939091B2, “Biorational repellents obtained from terpenoids for use against arthropods” (Iowa State University Research Foundation, Inc., priority 1999, dated 2011).
Values joined by “and” are separate entries in the source; they are usually repeats but may differ in a detail not shown here. Equal entries are not always repeated.

Assays:
[1] = tested on: northern house mosquito, Culex pipiens; test: Static-air choice-test apparatus, percentage and contact repellency bioassay; assay type: in vivo; conditions: 15 minutes
Experimental: A static-air choice-test apparatus as described above was used to determine the behavioral effects on the insects in this study. The apparatus consisted of a 9×60-cm section of glass tubing with a 2-cm hole drilled at the midpoint along the length for central introduction of the insects. All of the testing was conducted in an environmental chamber at 26° C.
Treatments included catnip essential oil, obtained by steam distillation as described herein and in Peterson, et al., J. Econ. Entomol., 2002, 95, 377-380. Osage orange essential oil, obtained by steam distillation of whole fruits previously described in Peterson, et al., J. Essential Oil Res., 2002, 14, 233-236, elemol (Augustus Oils, New Hampshire, England), and DEET (Aldrich, St. Louis, Mo.) test solutions at 1%, 0.5% and 0.1% concentrations (wt/vol). The test solutions' solvent, hexane, served as a control treatment in this assay.
One milliliter of the solution was applied to one half of a 9-cm diameter round filter paper with an area of 63.6 cm^2 and then allowed to dry before testing. […] Treated filter papers were placed inside the lids of 9-cm glass petri dishes, and placed over the ends of the glass tube. The position of the treated side, to the right or to the left, was selected by using a random-number table. Approximately fifteen unmated adult female mosquitoes were anaesthetized with CO2 and then introduced to the 9×60-cm glass cylinder through the centered 2-cm hole. Timing began two minutes after mosquito introduction, and mosquito distribution inside the static-air choice-test apparatus was observed over a 180-minute period for each treatment. Mosquito distribution (number of individuals on treated and untreated side) was recorded at 15, 30, 60, 90, 120, and 180-minute timepoints.
The data generated by this study was used to examine two measures of mosquito repellency, percentage repellency and contact repellency. Percentage repellency was calculated for with the following formula: Percentage Repellency=((Number of Individuals on Untreated Half-Number of Individuals on Treated Half)/15)×100.
Contact repellency was defined in this assay as 100% avoidance of the treated filter paper (no contact). 15, 30, 60, 90, 120, and 180-minute time-points were used to assess contact repellency for individual observations.
The experimental design was a completely randomized design using three replications of each treatment. Analysis of variance was performed on SAS (PROC GLM; SAS Version 8) to identify significant differences of percentage repellency due to treatment, and concentration. Multiple comparisions were completed using Tukey's procedure. Treatment pair-wise comparisons of contact repellency, which included data from the six time-points observed for each treatment, were completed using Fishers Exact (PROC FREQ; SAS Version 8).

[2] = tested on: antennectomized male German cockroaches; test: Choice test arena behavioral assay of antennectomized male cockroaches; assay type: in vivo, Blattella germanica; conditions: Annectomized male cockroaches; 1600 μg/cm^2
Experimental: Testing Procedure. Male cockroaches were antennectomized by using a razor blade to remove the antennae as close to the head as possible. The cockroaches were allowed to recover from the procedure for 24 hours before being exposed to the test compounds in the bioassay described in Example 1. Results.

female German cockroach = test: Choice test arena repellency, female German cockroach; assay type: in vivo, Blattella germanica; design: key: seconds spent on the side during a 300-second period; conditions: 10% by volume (1600 μg/cm^2) vs. acetone
Experimental: One Whatman 125-mm round filter paper was cut in half. One side was treated with one (1) ml of the test compound and the other side was treated with one (1) ml of solvent. The papers were allowed to dry in a fume hood for approximately two (2) minutes before being placed in a 150-mm Petri dish arena. The relative position of the treated side (i.e., to the right or left) of the dish was randomized using a random number table. […] The hole was stopped using a small piece of tape to prevent the insect from escaping. One adult male German cockroach (Blattella germanica) was selected from the colony and dropped into the pre-formed hole in the Petri dish lid. Immediately after introduction of the cockroach, the number of seconds the cockroach spent on the treated or untreated side during a 300-second (five (5) minute) period was recorded with two different (2) stopwatches. Ten (10) replications were performed for each test compound.
Testing methods and materials. In this experiment, female German cockroaches were tested in the same manner described in Example 1 against the steam distillates of catnip and the Osage orange. Testing using the commercial repellent, DEET, was also performed for comparison. It is known that male cockroaches are generally more sensitive to repellents, such as DEET, than female cockroaches.

[3] = tested on: German cockroach, Blattella germanica; test: Choice-test arena bioassay (contact irritancy), German cockroach, Example 6; assay type: in vivo; conditions: 300-second period
Experimental: (§1) A choice-test arena was used to assess irritancy of test solutions to two common household insect pests, the German cockroach (Blattella germanica) and the house fly (Musca domestica). Catnip essential oil obtained by steam distillation of catnip obtained from the same source as described in the above examples, and the two major components of its essential oil, Z,E-nepetalactone and E,Z-nepetalactone (isolated from the essential oil by preparative TLC), were evaluated for behavioral effects of contact irritancy to the German cockroach. The TLC was performed as described in McElvain, S. M. et al., J. Am. Chem. Soc., 1941, 63, 1558-1563. Catnip essential oil and its major constituent Z,E-nepetalactone were tested against the house fly. N,N-diethyl-m-toluamide (DEET) (Aldrich, St. Louis, Mo.) served as a positive control for the choice-test arena assay and as a point of comparison for measuring insect behavioral effects that result from current commercial insect repellents. Test solutions ranging from 10% to 0.1% (vol/vol) active ingredient (a.i.) were made up in acetone and then delivered on to a filter paper for solvent evaporation. […] Choice-test are for German cockroaches and house flies were constructed from plastic Petri dishes. One-half of a 12.5-cm dia. filter paper was treated with 1 ml test solution, and the other was treated with 1 ml of only solvent (control). Both halves of the filter paper were placed in the choice-test arena. Position of the treated filter paper was randomized using a random-number table.
(§2) Individual German cockroaches or house flies were placed in each choice-test arena through a centered hole in the lid of the Petri dish and evaluated for a 300-second period. The amount of time the insect spent on the treated and untreated filter papers were recorded and used to calculate a percentage repellency value: Percentage Repellency=((Time on Untreated-Time on Treated)/300)×100
(§3) Ten replicates of each treatment solution were tested for both German cockroaches and house flies. Details of this assay design and some results have previously been described.

[4] = tested on: house fly, Musca domestica; test: Choice-test arena bioassay (contact irritancy), house fly; assay type: in vivo; conditions: for Percentage Repellency: 300-second period
Experimental: as §1, §2, §3

[5] = concentration 0.1% (15.7 μg/cm^2)
[6] = concentration 0.5% (78.6 μg/cm^2)

Compound | Percentage Repellency [1, 5] [%] | Percentage Repellency [1, 6] [%] | Percentage Repellency ([1]; concentration 1% (157 μg/cm^2)) [%] | Mean seconds on treated side ± SEM [2] [s] | Mean seconds on untreated side [2] [s] | treated, mean of 10 trials (female German cockroach) | untreated, mean of 10 trials (female German cockroach) | treated (time on treated side), single trials 1-10 (female German cockroach; 300-second test as Example 1, in s (unit assumed)) | Percentage Repellency ± SEM ([3]; application rate 80 μg/cm^2) [a %] | Percentage Repellency ± SEM ([3]; application rate 160 μg/cm^2) [a %] | Percentage Repellency ± SEM ([3]; application rate 800 μg/cm^2) [a %] | Percentage Repellency ± SEM ([3]; application rate 1.60 mg/cm^2) [b %] | higher percentage repellency values (text summary of Table 15) ([4]; across application rates tested) [%] | Percentage Repellency ([4]; application rate 80 μg/cm^2) [%] | Percentage Repellency ([4]; application rate 160 μg/cm^2) [%] | Percentage Repellency ([4]; application rate 800 μg/cm^2) [%]
C=CC1(C)CCC(C(C)(C)O)CC1C(=C)C (stereo not shown) [Elemol] | 63.0 | 81.3 | 74.1 |  |  |  |  |  |  |  |  |  |  |  |  | 
CCN(CC)C(=O)c1cccc(C)c1 [DEET, N,N-diethyl-3-methylbenzamide, reference compound] | 59.3 | 62.3 | 44.4 | 148 ± 17.1 | 154 ± 17.2 | 144 | 156.9 | 99 and 166 and 116 and 181 and 157 and 146 and 137 and 150 | 15.5 ± 5.4 | 20.4 ± 9.2 | 25.8 ± 9.5 | 58.3 ± 10.5 | 39 | 38.7 | 19.3 | 20.7
